Experimental data from BigSolDB 2.1.

CC[C@@H](C(=O)[C@@H](C)[C@@H](O)[C@H](C)CCc1ccc(C)c(O)c1C(=O)[O-])[C@H]1O[C@](CC)([C@H]2CC[C@](O)(CC)[C@H](C)O2)C[C@@H]1C.[Na+]
solubility (mole fraction)
Settings | 283.15 K | 288.15 K | 293.15 K | 298.15 K | 303.15 K | 308.15 K | 313.15 K | 318.15 K | 323.15 K
in acetone | 0.0117 | 0.0119 | 0.0121 | 0.0123 | 0.0125 | 0.0127 | 0.0129 | 0.0132 | 0.0135
in ethanol | 0.00223 | 0.00246 | 0.0026 | 0.00311 | 0.00364 | 0.00419 | 0.00456 | 0.00502 | 0.00564
in ethyl acetate | 0.00531 | 0.00538 | 0.00548 | 0.00556 | 0.00566 | 0.00575 | 0.00587 | 0.00596 | 0.00602
in isopropanol | 0.00085 | 0.00095 | 0.00106 | 0.00117 | 0.00136 | 0.00161 | 0.00191 | 0.00211 | 0.00233
in methanol | 0.00259 | 0.00293 | 0.0031 | 0.00352 | 0.00391 | 0.00413 | 0.00456 | 0.00508 | 0.00577
